Assays:
[1] = xn = mol fraction of the nth substance listed; conditions: 101 kPa, Liquid
[2] = relative permittivity at zero frequency (dimensionless); xn = mol fraction of the nth substance listed; conditions: 101 kPa, Liquid, Dekameter
[3] = refractive index (Na D-line) (dimensionless); xn = mol fraction of the nth substance listed; conditions: 101 kPa, Liquid

O=C1CCCO1 [γ-butyrolactone] + CCCCO
Conditions	mass density [kg/m3]	refractive index	relative permittivity at zero frequency
[1], 293.15 K, x1 = 0.0786	831.12	–	–
[1], 293.15 K, x1 = 0.1555	852.82	–	–
[1], 293.15 K, x1 = 0.2466	879.28	–	–
[1], 293.15 K, x1 = 0.2901	892.18	–	–
[1], 293.15 K, x1 = 0.3664	915.23	–	–
[1], 293.15 K, x1 = 0.4332	935.89	–	–
[1], 293.15 K, x1 = 0.4988	956.54	–	–
[1], 293.15 K, x1 = 0.5616	976.71	–	–
[1], 293.15 K, x1 = 0.6336	1000.34	–	–
[1], 293.15 K, x1 = 0.7033	1023.73	–	–
[1], 293.15 K, x1 = 0.7956	1055.39	–	–
[1], 293.15 K, x1 = 0.8654	1080.09	–	–
[1], 293.15 K, x1 = 0.9334	1104.36	–	–
[1], 293.15 K, x1 = 0.9888	1124.69	–	–
[1], 298.15 K, x1 = 0.0786	827.22	–	–
[1], 298.15 K, x1 = 0.1555	848.94	–	–
[1], 298.15 K, x1 = 0.2466	875.32	–	–
[1], 298.15 K, x1 = 0.2901	888.19	–	–
[1], 298.15 K, x1 = 0.3664	911.2	–	–
[1], 298.15 K, x1 = 0.4332	931.77	–	–
[1], 298.15 K, x1 = 0.4988	952.35	–	–
[1], 298.15 K, x1 = 0.5616	972.46	–	–
[1], 298.15 K, x1 = 0.6336	996.03	–	–
[1], 298.15 K, x1 = 0.7033	1019.35	–	–
[1], 298.15 K, x1 = 0.7956	1050.92	–	–
[1], 298.15 K, x1 = 0.8654	1075.34	–	–
[1], 298.15 K, x1 = 0.9334	1099.62	–	–
[1], 298.15 K, x1 = 0.9888	1119.77	–	–
[1], 303.15 K, x1 = 0.0786	823.57	–	–
[1], 303.15 K, x1 = 0.1555	845.28	–	–
[1], 303.15 K, x1 = 0.2466	871.63	–	–
[1], 303.15 K, x1 = 0.2901	884.43	–	–
[1], 303.15 K, x1 = 0.3664	907.36	–	–
[1], 303.15 K, x1 = 0.4332	927.87	–	–
[1], 303.15 K, x1 = 0.4988	948.38	–	–
[1], 303.15 K, x1 = 0.5616	968.43	–	–
[1], 303.15 K, x1 = 0.6336	991.92	–	–
[1], 303.15 K, x1 = 0.7033	1015.09	–	–
[1], 303.15 K, x1 = 0.7956	1046.55	–	–
[1], 303.15 K, x1 = 0.8654	1070.81	–	–
[1], 303.15 K, x1 = 0.9334	1094.88	–	–
[1], 303.15 K, x1 = 0.9888	1114.92	–	–
[1], 313.15 K, x1 = 0.0786	816.82	–	–
[1], 313.15 K, x1 = 0.1555	839.3	–	–
[1], 313.15 K, x1 = 0.2466	866.62	–	–
[1], 313.15 K, x1 = 0.2901	879.94	–	–
[1], 313.15 K, x1 = 0.3664	903.64	–	–
[1], 313.15 K, x1 = 0.4332	924.87	–	–
[1], 313.15 K, x1 = 0.4988	946.17	–	–
[1], 313.15 K, x1 = 0.5616	966.89	–	–
[1], 313.15 K, x1 = 0.6336	991.1	–	–
[1], 313.15 K, x1 = 0.7033	1015.08	–	–
[1], 313.15 K, x1 = 0.7956	1047.44	–	–
[1], 313.15 K, x1 = 0.8654	1072.54	–	–
[1], 313.15 K, x1 = 0.9334	1097.32	–	–
[1], 313.15 K, x1 = 0.9888	1118.1	–	–
[2], 293.15 K, x1 = 0.1098	–	–	20.68
[2], 293.15 K, x1 = 0.2154	–	–	22.37
[2], 293.15 K, x1 = 0.3009	–	–	23.98
[2], 293.15 K, x1 = 0.4127	–	–	26.17
[2], 293.15 K, x1 = 0.5088	–	–	28.44
[2], 293.15 K, x1 = 0.6124	–	–	31.29
[2], 293.15 K, x1 = 0.7001	–	–	33.79
[2], 293.15 K, x1 = 0.8133	–	–	37.12
[2], 293.15 K, x1 = 0.9078	–	–	40.02
[2], 298.15 K, x1 = 0.1098	–	–	19.61
[2], 298.15 K, x1 = 0.2154	–	–	21.23
[2], 298.15 K, x1 = 0.3009	–	–	22.55
[2], 298.15 K, x1 = 0.4127	–	–	24.92
[2], 298.15 K, x1 = 0.5088	–	–	27.23
[2], 298.15 K, x1 = 0.6124	–	–	29.79
[2], 298.15 K, x1 = 0.7001	–	–	32.21
[2], 298.15 K, x1 = 0.8133	–	–	36.01
[2], 298.15 K, x1 = 0.9078	–	–	39.13
[2], 303.15 K, x1 = 0.1098	–	–	18.57
[2], 303.15 K, x1 = 0.2154	–	–	19.99
[2], 303.15 K, x1 = 0.3009	–	–	21.61
[2], 303.15 K, x1 = 0.4127	–	–	23.88
[2], 303.15 K, x1 = 0.5088	–	–	26.16
[2], 303.15 K, x1 = 0.6124	–	–	28.82
[2], 303.15 K, x1 = 0.7001	–	–	31.34
[2], 303.15 K, x1 = 0.8133	–	–	35.03
[2], 303.15 K, x1 = 0.9078	–	–	38.46
[2], 313.15 K, x1 = 0.1098	–	–	16.65
[2], 313.15 K, x1 = 0.2154	–	–	18.16
[2], 313.15 K, x1 = 0.3009	–	–	19.99
[2], 313.15 K, x1 = 0.4127	–	–	22.01
[2], 313.15 K, x1 = 0.5088	–	–	24.43
[2], 313.15 K, x1 = 0.6124	–	–	26.76
[2], 313.15 K, x1 = 0.7001	–	–	29.25
[2], 313.15 K, x1 = 0.8133	–	–	33.05
[2], 313.15 K, x1 = 0.9078	–	–	36.56
[3], 293.15 K, x1 = 0.1098	–	1.4026	–
[3], 293.15 K, x1 = 0.2154	–	1.4063	–
[3], 293.15 K, x1 = 0.3009	–	1.4096	–
[3], 293.15 K, x1 = 0.4127	–	1.4136	–
[3], 293.15 K, x1 = 0.5088	–	1.4172	–
[3], 293.15 K, x1 = 0.6124	–	1.4213	–
[3], 293.15 K, x1 = 0.7001	–	1.4247	–
[3], 293.15 K, x1 = 0.8133	–	1.4294	–
[3], 293.15 K, x1 = 0.9078	–	1.4332	–
[3], 298.15 K, x1 = 0.1098	–	1.4014	–
[3], 298.15 K, x1 = 0.2154	–	1.4051	–
[3], 298.15 K, x1 = 0.3009	–	1.4083	–
[3], 298.15 K, x1 = 0.4127	–	1.4124	–
[3], 298.15 K, x1 = 0.5088	–	1.416	–
[3], 298.15 K, x1 = 0.6124	–	1.42	–
[3], 298.15 K, x1 = 0.7001	–	1.4234	–
[3], 298.15 K, x1 = 0.8133	–	1.4279	–
[3], 298.15 K, x1 = 0.9078	–	1.4316	–
[3], 303.15 K, x1 = 0.1098	–	1.4	–
[3], 303.15 K, x1 = 0.2154	–	1.4038	–
[3], 303.15 K, x1 = 0.3009	–	1.407	–
[3], 303.15 K, x1 = 0.4127	–	1.4111	–
[3], 303.15 K, x1 = 0.5088	–	1.4147	–
[3], 303.15 K, x1 = 0.6124	–	1.4186	–
[3], 303.15 K, x1 = 0.7001	–	1.4219	–
[3], 303.15 K, x1 = 0.8133	–	1.4263	–
[3], 303.15 K, x1 = 0.9078	–	1.43	–
[3], 313.15 K, x1 = 0.1098	–	1.3973	–
[3], 313.15 K, x1 = 0.2154	–	1.4013	–
[3], 313.15 K, x1 = 0.3009	–	1.4044	–
[3], 313.15 K, x1 = 0.4127	–	1.4085	–
[3], 313.15 K, x1 = 0.5088	–	1.4121	–
[3], 313.15 K, x1 = 0.6124	–	1.4158	–
[3], 313.15 K, x1 = 0.7001	–	1.4192	–
[3], 313.15 K, x1 = 0.8133	–	1.4232	–
[3], 313.15 K, x1 = 0.9078	–	1.4267	–
